These compounds were tested against T1, Human NK1 Receptor (Homo sapiens, UniProt P25103) (assay: In Vitro Human NK1 Receptor Binding Assay ([125I]Bolton-Hunter substance P displacement, IM9 cells)). Conditions: Human lymphoma IM9 cells, [125I]Bolton-Hunter substance P (0.05-0.1 nM), 50 min at 21° C.; Table 1; read-out: NK1 binding IC50.
T1 construct: endogenous in cells; host or cells: Human lymphoma IM9 cells (whole cells)
T1 sequence (P25103 whole entry): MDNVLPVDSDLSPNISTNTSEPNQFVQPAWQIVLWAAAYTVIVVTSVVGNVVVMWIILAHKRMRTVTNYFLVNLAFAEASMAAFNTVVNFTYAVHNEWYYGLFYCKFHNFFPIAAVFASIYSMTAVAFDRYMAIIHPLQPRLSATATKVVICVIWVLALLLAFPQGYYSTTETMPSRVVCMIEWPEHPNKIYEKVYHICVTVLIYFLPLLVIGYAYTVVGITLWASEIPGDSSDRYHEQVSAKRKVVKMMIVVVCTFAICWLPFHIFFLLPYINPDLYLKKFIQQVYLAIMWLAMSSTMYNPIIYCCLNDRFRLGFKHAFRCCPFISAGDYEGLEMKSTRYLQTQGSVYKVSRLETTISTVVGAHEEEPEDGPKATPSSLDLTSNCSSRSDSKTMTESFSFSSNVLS
Procedure, shortened: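 Test compounds competed with 0.05-0.1 nM [125I]Bolton-Hunter substance P for binding to intact IM9 cells over 50 min at 21° C, pH 7.4 buffer with MnCl2 and peptidase inhibitors. […] [Sar9, Met(O2)11] substance P gave non-specific binding. Bound counts were measured after filtration and fitted iteratively.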
`C[C@H](NC(=O)[C@@H](Cc1c[nH]c2ccccc12)NCc1cccc(SC(F)(F)F)c1)c1ccccc1` (relative stereo) [Example 13, 3-(1H-Indol-3-yl)-N-(1-phenyl-ethyl)-2-(3-trifluoromethylsulfanyl-benzylamino)-propionamide, [R-(R*,S*)]] gave an IC50 of 35 nM.

Same assay, conditions: Human lymphoma IM9 cells, [125I]Bolton-Hunter substance P; Table 3, array-synthesis products; read-out: IC50 (nM) hNK1
For `Cc1ccc(CCNC(=O)C(Cc2c[nH]c3ccccc23)NCc2cc3ccccc3o2)cc1` (centres unmarked) [Example 300, 2-[(Benzofuran-2-ylmethyl)-amino]-3-(1H-indol-3-yl)-N-(2-p-tolyl-ethyl)-propionamide], the IC50 was 256 nM. For `Cc1cccc(CNC(=O)C(Cc2c[nH]c3ccccc23)NCc2cc3ccccc3o2)c1` (centres unmarked) [Example 252, 2-[(Benzofuran-2-ylmethyl)-amino]-3-(1H-indol-3-yl)-N-(3-methyl-benzyl)-propionamide], the IC50 was 33 nM. For `O=C(NCc1ccc([N+](=O)[O-])cc1)C(Cc1c[nH]c2ccccc12)NCc1cc2ccccc2o1` (centres unmarked) [Example 221, 2-[(Benzofuran-2-ylmethyl)-amino]-3-(1H-indol-3-yl)-N-(4-nitro-benzyl)-propionamide], the IC50 was 23 nM. `O=C(NCc1ccccn1)C(Cc1c[nH]c2ccccc12)NCc1cc2ccccc2o1` (centres unmarked) [Example 192, 2-[(Benzofuran-2-ylmethyl)-amino]-3-(1H-indol-3-yl)-N-pyridin-2-ylmethyl-propionamide] showed an IC50 of 1980 nM. Compound `Nc1ccc(CNC(=O)C(Cc2c[nH]c3ccccc23)NCc2cc3ccccc3o2)cc1` (centres unmarked) [Example 306, N-(4-Amino-benzyl)-2-[(benzofuran-2-ylmethyl)-amino]-3-(1H-indol-3-yl)-propionamide] has an IC50 of 639 nM. Compound `Cc1ccc(C(C)NC(=O)C(Cc2c[nH]c3ccccc23)NCc2cc3ccccc3o2)s1` (centres unmarked) [Example 208, 2-[(Benzofuran-2-ylmethyl)-amino]-3-(1H-indol-3-yl)-N-[1-(5-methyl-thiophen-2-yl)-ethyl]-propionamide] has an IC50 of 15 nM. For `Cc1ccc(CNC(=O)C(Cc2c[nH]c3ccccc23)NCc2cc3ccccc3o2)cc1` (centres unmarked) [Example 209, 2-[(Benzofuran-2-ylmethyl)-amino]-3-(1H-indol-3-yl)-N-(4-methyl-benzyl)-propionamide], the IC50 was 82 nM. `CN(C)c1ccc(CNC(=O)C(Cc2c[nH]c3ccccc23)NCc2cc3ccccc3o2)cc1` (centres unmarked) [Example 214, 2-[(Benzofuran-2-ylmethyl)-amino]-N-(4-dimethylamino-benzyl)-3-(1H-indol-3-yl)-propionamide] gave an IC50 of 4010 nM. In the case of `N#CC(NC(=O)C(Cc1c[nH]c2ccccc12)NCc1cc2ccccc2o1)c1ccccc1` (centres unmarked) [Example 287, 2-[(Benzofuran-2-ylmethyl)-amino]-N-(cyano-phenyl-methyl)-3-(1H-indol-3-yl)-propionamide], the IC50 is reported as 35 nM. Work on `O=C(NCc1cccc(OC(F)(F)F)c1)C(Cc1c[nH]c2ccccc12)NCc1cc2ccccc2o1` (centres unmarked) [Example 200, 2-[(Benzofuran-2-ylmethyl)-amino]-3-(1H-indol-3-yl)-N-(3-trifluoromethoxy-benzyl)-propionamide] yielded an IC50 of 355 nM. Work on `O=C(NCc1ccc([N+](=O)[O-])o1)C(Cc1c[nH]c2ccccc12)NCc1cc2ccccc2o1` (centres unmarked) [Example 216, 2-[(Benzofuran-2-ylmethyl)-amino]-3-(1H-indol-3-yl)-N-(5-nitro-furan-2-ylmethyl)-propionamide] yielded an IC50 of over 10000 nM. With `O=C(NCCc1ccc(Cl)cc1)C(Cc1c[nH]c2ccccc12)NCc1cc2ccccc2o1` (centres unmarked) [Example 288, 2-[(Benzofuran-2-ylmethyl)-amino]-N-[2-(4-chloro-phenyl)-ethyl]-3-(1H-indol-3-yl)-propionamide] the IC50 was 136 nM.

Same assay, conditions: Table 4; [125I]Bolton-Hunter substance P displacement, human IM9 cells; read-out: IC50 (nM) hNK1
In the case of `CC(NC(=O)C(C)(Cc1c[nH]c2ccccc12)NCc1ccoc1)c1ccccc1` (centres unmarked) [compound 312, 2-[(Furan-3-ylmethyl)-amino]-3-(1H-indol-3-yl)-2-methyl-N-(1-phenyl-ethyl)-propionamide], the IC50 is reported as 1820 nM. With `CC(NC(=O)C(C)(Cc1c[nH]c2ccccc12)NCc1cccnc1)c1ccccc1` (centres unmarked) [compound 320, 3-(1H-Indol-3-yl)-2-methyl-N-(1-phenyl-ethyl)-2-[(pyridin-3-ylmethyl)-amino]-propionamide] the IC50 was 5970 nM.

Same assay, conditions: Table 5; [125I]Bolton-Hunter substance P displacement, human IM9 cells; read-out: IC50 (nM) hNK1
`Cc1ccc(S(=O)(=O)Oc2cccc(CNC(Cc3c[nH]c4ccccc34)C(=O)NC(C)c3ccccc3)c2)cc1` (centres unmarked) [compound 381] showed an IC50 of over 10000 nM. In the case of `CC(NC(=O)C(Cc1c[nH]c2ccccc12)NCc1ccccc1Sc1ccc(Cl)cc1)c1ccccc1` (centres unmarked) [compound 387], the IC50 is reported as 201 nM.

Same assay, conditions: human NK1 receptor, IM9 cells, [125I]Bolton-Hunter substance P; read-out: IC50 (nM) hNK1
`CC(Cc1c[nH]c2ccccc12)(NCc1cc2ccccc2o1)C(=O)NCc1ccc(F)c(Cl)c1` (centres unmarked) [compound 191, 2-[(Benzofuran-2-ylmethyl)-amino]-N-(3-chloro-4-fluoro-benzyl)-3-(1H-indol-3-yl)-2-methyl-propionamide] gave an IC50 of 55 nM. `CCC(NC(=O)C(C)(Cc1c[nH]c2ccccc12)NCc1cc2ccccc2o1)c1ccccc1` (centres unmarked) [compound 63, 2-[(Benzofuran-2-ylmethyl)-amino]-3-(1H-indol-3-yl)-2-methyl-N-(1-phenyl-propyl)-propionamide] gave an IC50 of 58 nM. In the case of `COc1ccc(C(C)NC(=O)C(C)(Cc2c[nH]c3ccccc23)NCc2cc3ccccc3o2)cc1` (centres unmarked) [compound 35, 2-[(Benzofuran-2-ylmethyl)-amino]-3-(1H-indol-3-yl)-N-[1-(4-methoxy-phenyl)-ethyl]-2-methyl-propionamide], the IC50 is reported as 31 nM. With `CC(Cc1c[nH]c2ccccc12)(NCc1cc2ccccc2o1)C(=O)NCc1c(N)cccc1F` (centres unmarked) [compound 48, N-(2-Amino-6-fluoro-benzyl)-2-[(benzofuran-2-ylmethyl)-amino]-3-(1H-indol-3-yl)-2-methyl-propionamide] the IC50 was 6420 nM. In the case of `CC(Cc1c[nH]c2ccccc12)(NCc1cc2ccccc2o1)C(=O)NCc1cccc(F)c1` (centres unmarked) [compound 166, 2-[(Benzofuran-2-ylmethyl)-amino]-N-(3-fluoro-benzyl)-3-(1H-indol-3-yl)-2-methyl-propionamide], the IC50 is reported as 37 nM. In the case of `CCC(NC(=O)C(C)(Cc1c[nH]c2ccccc12)NCc1cc2ccccc2o1)c1cccs1` (centres unmarked) [compound 114, 2-[(Benzofuran-2-ylmethyl)-amino]-3-(1H-indol-3-yl)-2-methyl-N-(1-thiophen-2-yl-propyl)-propionamide], the IC50 is reported as 128 nM. With `CC(Cc1c[nH]c2ccccc12)(NCc1cc2ccccc2o1)C(=O)NCC1CCCO1` (centres unmarked) [compound 138, 2-[(Benzofuran-2-ylmethyl)-amino]-3-(1H-indol-3-yl)-2-methyl-N-(tetrahydro-furan-2-ylmethyl)-propionamide] the IC50 was 4870 nM. `CC(Cc1c[nH]c2ccccc12)(NCc1cc2ccccc2o1)C(=O)NCC1CCCO1` (centres unmarked) [compound 135, 2-[(Benzofuran-2-ylmethyl)-amino]-3-(1H-indol-3-yl)-2-methyl-N-(tetrahydro-furan-2-ylmethyl)-propionamide] was tested, and the IC50 was 1200 nM. Compound `CNCCNC(=O)C(C)(Cc1c[nH]c2ccccc12)NCc1cc2ccccc2o1` (centres unmarked) [compound 76, 2-[(Benzofuran-2-ylmethyl)-amino]-3-(1H-indol-3-yl)-2-methyl-N-(2-methylamino-ethyl)-propionamide] has an IC50 of 3700 nM. Compound `COc1ccc(CNC(=O)C(C)(Cc2c[nH]c3ccccc23)NCc2cc3ccccc3o2)cc1F` (centres unmarked) [compound 187, 2-[(Benzofuran-2-ylmethyl)-amino]-N-(3-fluoro-4-methoxy-benzyl)-3-(1H-indol-3-yl)-2-methyl-propionamide] has an IC50 of 131 nM. Work on `CC(NC(=O)C(C)(Cc1c[nH]c2ccccc12)NCc1cc2ccccc2o1)c1cccc2ccccc12` (centres unmarked) [compound 32, 2-[(Benzofuran-2-ylmethyl)-amino]-3-(1H-indol-3-yl)-2-methyl-N-(1-naphthalen-1-yl-ethyl)-propionamide] yielded an IC50 of over 10000 nM. `CC(Cc1c[nH]c2ccccc12)(NCc1cc2ccccc2o1)C(=O)NCCCN1CCOCC1` (centres unmarked) [compound 185, 2-[(Benzofuran-2-ylmethyl)-amino]-3-(1H-indol-3-yl)-2-methyl-N-(3-morpholin-4-yl-propyl)-propionamide] gave an IC50 of over 10000 nM. With `CC(Cc1c[nH]c2ccccc12)(NCc1cc2ccccc2o1)C(=O)NCc1cccc(Br)c1` (centres unmarked) [compound 72, 2-[(Benzofuran-2-ylmethyl)-amino]-N-(3-bromo-benzyl)-3-(1H-indol-3-yl)-2-methyl-propionamide] the IC50 was 18 nM. Work on `CC(NC(=O)C(C)(Cc1c[nH]c2ccccc12)NCc1cc2ccccc2o1)c1ccc(N(C)C)cc1` (centres unmarked) [compound 39, 2-[(Benzofuran-2-ylmethyl)-amino]-N-[1-(4-dimethylamino-phenyl)-ethyl]-3-(1H-indol-3-yl)-2-methyl-propionamide] yielded an IC50 of 863 nM. For `Cc1cccc(CNC(=O)C(C)(Cc2c[nH]c3ccccc23)NCc2cc3ccccc3o2)c1C` (centres unmarked) [compound 54, 2-[(Benzofuran-2-ylmethyl)-amino]-N-(2,3-dimethyl-benzyl)-3-(1H-indol-3-yl)-2-methyl-propionamide], the IC50 was 834 nM. `CC(NC(=O)C(C)(Cc1c[nH]c2ccccc12)NCc1cc2ccccc2o1)C1=CCCO1` (centres unmarked) [compound 146, 2-[(Benzofuran-2-ylmethyl)-amino]-N-[1-(4,5-dihydro-furan-2-yl)-ethyl]-3-(1H-indol-3-yl)-2-methyl-propionamide] showed an IC50 of 3590 nM. `CC(Cc1c[nH]c2ccccc12)(NCc1cc2ccccc2o1)C(=O)NC1CCCCC1` (centres unmarked) [compound 26, 2-[(Benzofuran-2-ylmethyl)-amino]-N-cyclohexyl-3-(1H-indol-3-yl)-2-methyl-propionamide] was tested, and the IC50 was 1010 nM. `CC(NC(=O)C(C)(Cc1c[nH]c2ccccc12)NCc1cc2ccccc2o1)c1ccc(F)cc1` (centres unmarked) [compound 33, 2-[(Benzofuran-2-ylmethyl)-amino]-N-[1-(4-fluoro-phenyl)-ethyl]-3-(1H-indol-3-yl)-2-methyl-propionamide] gave an IC50 of 9 nM.

— patent publication US6472418B1, “Non-peptide NK1 receptors antagonists” (Warner-Lambert Company, priority 1998, dated 2002)
